The subject of test [1] is lipid peroxides production in rat brain homogenates. Kind of test: Inhibitory action on lipid peroxides production in rat brain homogenates. The test is classed as biochemical. To be noted: 10^-5 M. Here is the method:
Inhibitory action on lipid peroxides production in rat brain homogenates
Method: The male SD rat brain tissue was used as 5% homogenate in phosphate-buffered solution. After incubation of the homogenate for 1 hour at 37° C., the amount of lipid peroxides produced was determined by the thiobarbituric acid method according to the description of Ohkawa et al. (Analytical Biochemistry, 95: 551, 1979)
Test compounds were used as a solution of dimethylsulfoxide. The inhibitory action on lipid peroxide production was expressed as a % inhibition as compared with the amount of production in the vehicle group.

Test [2] has as its system U-46619 (TXA2 mimic)-induced broncho-constriction. Description: Inhibitory effect on U-46619 (TXA2 mimic)-induced broncho-constriction in guinea pig. In kind it is in vivo. To be noted: Cavia porcellus, ** p < 0.01; for inhibition in vivo at 5 mg/kg: 5 mg/kg p.o.; for inhibition in vivo at 0.31 mg/kg: 0.31 mg/kg p.o. Here is the method:
Inhibitory effect on U-46619 (TXA2 mimic)-induced broncho-constrictionin guinea pig
Method: Eight male Hartley guinea pigs were used per one group. The guinea pig anesthetized with urethane (1.5 g/kg, i.p.) was fixed in a dorsal position, subjected to tracheotomy and connected to a respirator through a cannula. A side branch of the tracheal cannula was connected to a respirator (Harvard apparatus rodent respirator Type 680) at the rate of 70 strokes/min. and a constant volume of 3 to 5 ml.
Inflation pressure was kept constant at 10 cm H2 O.
After treatment with gallamine triethiodide (1 mg/kg, i.v.), U-46619 (10 μg/Kg) dissolved in a physiological saline solution was given through a carotid cannula and the airway resistance was measured by the overflow technique of Konzett-Rossler method (Konzett, H. and Rossler, R., Naunyn-Schmiedegerg's Arch, Exp. Path. Pharmak., 195, 71-74 (1940). A test compound was suspended in 5% gum arabic solution and was administered orally 1 hour before the treatment with U-46619.
Alternatively, a test compound was dissolved in aqueous 50% dimethylsulfoxide solution and administered interveneously in the dosage of 0.1 ml/100 g body weight 9 minutes before the treatment of U-46619.

Test [3] concerns the target T1, Thromboxane A2 (TXA2) receptor (Oryctolagus cuniculus, UniProt Q6WQI8).
T1 construct: contraction by TXA2 mimics U-44069 or U-46619
T1 sequence (Q6WQI8 1-233): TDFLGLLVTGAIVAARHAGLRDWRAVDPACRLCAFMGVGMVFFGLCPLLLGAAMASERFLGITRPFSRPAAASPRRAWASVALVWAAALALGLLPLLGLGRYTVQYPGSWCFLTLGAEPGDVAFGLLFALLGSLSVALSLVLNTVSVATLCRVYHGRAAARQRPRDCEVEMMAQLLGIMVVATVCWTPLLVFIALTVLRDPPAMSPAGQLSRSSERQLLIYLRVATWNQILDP
Description: Thromboxane A2 (TXA2) receptor antagonism: inhibitory effect on contraction of rabbit aorta by TXA2-mimics. The note with it: for inhibition at 1 µM: 10^-6 M; for inhibition at 0.1 µM: 10^-7 M. The test is classed as cell-based. Here is the method: Thromboxane A2 (TXA2) receptor antagonism
Inhibitory effect on contraction of rabbit aorta by thromboxan A2 (TXA2)-mimics
Method: A spiral strip of the rabbit aorta (2-3 mm wide, about 3 cm long) was suspended in Krebs-Henseleit solution under the load of 2 g. The Krebs-Henseleit solution was saturated with a mixed gas of 95%O2 -5%CO2 and warmed at 37° C. Inhibition of the contraction of the vascular strip caused by a TXA2 mimic substance U-44069^1) (10^-7 M) or U-46619^2) (3×10 ^-8 M), by pretreatment with Compound No. 13 30 minutes before was studied.
1) U-44069: (5Z, 9α, 11α, 13E, 15S)-15-hydroxy-9,11-(epoxymethano)-prosta-5,13-dienoic acid (manufacturedby The Upjohn Company in U.S.A.)
2) U-46619: (5Z, 9α, 11α, […], 15S)-15-hydroxy-11,9-(epoxymethano)-prosta-5,13-dienoic acid (manufacturedby Cayman Chemical Company)
In Table 5, "*" represents addition of U-46619.

The target of test [4] is T2, specific [^3 H] U-46619 binding to guinea pig platelet membrane (Cavia porcellus, UniProt A0A286Y4I8).
T2 construct: Platelet membranes were prepared according to the following procedure; from tissue; host or cells: guinea pig platelet membranes
T2 sequence (A0A286Y4I8 1-347): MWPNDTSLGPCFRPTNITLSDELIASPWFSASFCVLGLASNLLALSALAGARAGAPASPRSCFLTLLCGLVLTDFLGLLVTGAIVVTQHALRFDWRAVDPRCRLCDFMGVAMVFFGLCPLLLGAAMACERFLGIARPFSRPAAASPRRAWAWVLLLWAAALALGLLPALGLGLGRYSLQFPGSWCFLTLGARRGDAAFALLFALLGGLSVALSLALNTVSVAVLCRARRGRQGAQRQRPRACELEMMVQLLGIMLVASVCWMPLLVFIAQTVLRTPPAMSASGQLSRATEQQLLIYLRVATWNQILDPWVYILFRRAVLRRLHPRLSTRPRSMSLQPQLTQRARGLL
Description: Inhibition of specific [^3 H] U-46619 binding to guinea pig platelet membrane. To be noted: [^3 H] U-46619, 25° C., 30 min; read-out: IC50 (Concentration for 50% inhibition). Here is the method: Inhibition of specific [^3 H] U-46619 binding to guinea pig platelet membrane
Method: Blood from normal guinea pig was collected into 0.315% citrate solution containing aspirin (final concentration 1 mM) and was centrifuged at 3000 r.p.m. for […]. The PRP (platelet rich plasma) was centrifuged at 4800 r.p.m for 10 min. at 4° C. Platelet membranes were prepared according to the following procedure: In order to remove the residual plasma protein, the platelet pellet was washed once with 30 ml of buffer containing 25 mM Tris-HCl/5 mM MgCl2 (pH 7.4) and recentrifuged to pellet the platelets. The platelets were then resuspended in 20 ml of the same buffer, and the cells were disrupted by sonication. The sonication was performed on ice using a Kontes Sonicator (Vineland, N.J.). The platelets were sonicated for a total of 90 sec. with a 15 sec. burst followed by a 15 sec. intermission. The sonicated mixture was centrifuged at 100,000×g for 1 hour and the membrane fraction was suspended in the same buffer. The protein concentration was adjusted to 1 mg/ml.
The binding assay was performed at 25° C. for 30 min. One ml of the resuspended membrane fraction was incubated with […] of [^3 H] U-46619. The incubation mixture was filtered through a glass fiber membrane (GF/C, whatman) to separate the membrane bound from free [^3 H] U-46619. The membranes were quickly washed twice with 5 ml of cold buffer, mixed with 4 ml of ACS scintillation fluid and counted for [^3 H] U-46619.

Another test has as its target T3, 5-Lipoxygenase (Rattus norvegicus, UniProt P12527).
T3 construct: RBL-1 cells (rat basophilic leukemia cells); endogenous in cells; host or cells: RBL-1 (rat basophilic leukemia cells)
T3 sequence (P12527 1-673): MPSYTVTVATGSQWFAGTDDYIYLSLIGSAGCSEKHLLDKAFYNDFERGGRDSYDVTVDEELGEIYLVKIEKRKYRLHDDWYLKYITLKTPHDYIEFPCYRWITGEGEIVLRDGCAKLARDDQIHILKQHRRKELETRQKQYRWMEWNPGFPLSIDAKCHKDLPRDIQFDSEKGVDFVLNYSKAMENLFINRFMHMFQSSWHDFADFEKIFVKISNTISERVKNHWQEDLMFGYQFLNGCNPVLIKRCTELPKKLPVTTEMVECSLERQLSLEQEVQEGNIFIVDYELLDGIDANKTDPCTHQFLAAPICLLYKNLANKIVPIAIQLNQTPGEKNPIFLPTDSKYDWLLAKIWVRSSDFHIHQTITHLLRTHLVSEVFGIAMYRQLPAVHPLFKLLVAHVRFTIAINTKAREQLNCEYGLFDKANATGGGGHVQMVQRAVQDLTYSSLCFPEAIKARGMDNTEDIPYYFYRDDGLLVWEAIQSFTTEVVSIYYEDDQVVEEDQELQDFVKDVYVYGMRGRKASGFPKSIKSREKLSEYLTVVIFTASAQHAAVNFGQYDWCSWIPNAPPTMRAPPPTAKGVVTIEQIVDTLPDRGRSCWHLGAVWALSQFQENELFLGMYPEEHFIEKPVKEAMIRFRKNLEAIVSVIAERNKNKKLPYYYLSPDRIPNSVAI
Kind of test: 5-Lipoxygenase inhibitory activity (5-HETE production in RBL-1 cells). The note with it: read-out: Inhibitory effect on 5-HETE production (%). In kind it is cell-based. As for the experimental part:
5-Lipoxygenase inhibitory activity
Method: 10^7 RBL-1 cells (rat basophilic leukemia cells) were suspended in 0.5 ml of MCM (mast cell medium), and test solutions (made up of 0.5 ml of MCM, 50 μg of arachidonic acid, 10 μg of A-23187 (calcium ionophore) and 1 μM, 0.01 μM and 0.001 μM as the final concentration of the phenol compound, respectively) prepared previously were added respectively to the suspension, followed by reaction at 37° C. for 20 minutes. After the conclusion of the reaction, 4 ml of ethanol and 1,4-dimethoxy-2-methyl-3-(3-methoxypropyl)naphthalene as the internal reference drug were added to the reaction solution, and the mixture was shaken thoroughly and allowed to stand at room temperature for 10 minutes. Then, it was centrifuged (2000 r.p.m.) for 10 minutes, and the supernatant fluid was separated and concentrated to dryness under reduced pressure. 0.5 ml of 60% aqueous methanol was added to the concentrate, and 100 μl of the resulting solution was taken and subjected to high-performance liquid chromatography to determine the amount of 5-HETE (5-hydroxy-eicosatetraenoic acid). Determination of 5-HETE was made through measurement of an absorption at 237 nm with a UV absorption monitor.
The 5-HETE production inhibitory effect (IE) was expressed by [formula] wherein a is a peak height or peak area corrected by the peak for the internal reference when the phenol compound is not contained; b is a peak height or peak area corrected by the peak for the internal reference when the phenol compound is contained.

The mark [5] stands for this setting: addition of U-46619 (3×10^-8 M) (*).
[6] abbreviates: iv, 1.25 mg/kg i.v., 9 minutes before U-46619.
Setting [7] is: U-44069 (10^-7 M)-induced contraction.

From patent US5162571A, “Phenol derivatives, their production and use” (Takeda Chemical Industries, Ltd., priority 1987, dated 1992) come the findings set out here.

Molecules are shown by their SMILES.

`Cc1c(C)c(Cc2ccc(F)cc2)c(C)c(C(CCCCCC(=O)O)c2ccc(F)cc2)c1O` (stereo not drawn) [Compound 20]: in test [1], the “Inhibition (%)” value stood at 74.5%.
Take `CCCCCCC(c1ccc(F)cc1)c1c(C)c(C)cc(C)c1O` (stereo not drawn) [Compound 6]: the “Inhibition (%)” value in test [1] was 100%.
In test [2] (po, 1 hour before U-46619), `CC(=O)c1c(C)c(C)c(O)c(C(CCCCCC(=O)O)c2ccc(F)cc2)c1C` (stereo not drawn) [Compound 35, 7-(3-acetyl-6-hydroxy-2,4,5-trimethylphenyl)-7-(4-fluorophenyl)heptanoic acid] showed an inhibition in vivo at 5 mg/kg of 76%. Besides, in test [3] (setting [5]), the inhibition at 1 µM was 98% and the inhibition at 0.1 µM worked out at 23%. Moreover, in test [4], the IC50 turned out to be 80 nM.
With `Cc1c(C)c2c(c(C(CCCCCC(=O)O)c3ccc(F)cc3)c1O)CCC2` (stereo not drawn) [Compound 22], in test [2] (setting [6]), the inhibition in vivo at 1.25 mg/kg came out at 43%. In test [2] (po, 1 hour before U-46619), this molecule registered an inhibition in vivo at 5 mg/kg of 83%. In addition, the inhibition at 10 µM in test [3] (10^-5 M, U-44069 (10^-7 M)-induced contraction) was found to be 100%. For the same molecule, in test [3] (setting [7]), the inhibition at 1 µM turned out to be 45%. The IC50 in test [4] was 160 nM.
`Cc1cc(C)c(O)c(C(CCCCCCO)c2ccccc2)c1C` (stereo not drawn) [Compound 5, 7-(2-hydroxy-3,5,6-trimethylphenyl)-7-phenylheptanol]: the “Inhibition (%)” value in test [1] turned out to be 100%.
In turn, `Cc1c(C)c(CO)c(C)c(C(CCCCCC(=O)O)c2ccc(F)cc2)c1O` (stereo not drawn) [Compound 32, 7-(4-fluorophenyl)-7-(6-hydroxy-3-hydroxymethyl-2,4,5-trimethylphenyl)heptanoic acid] returned an inhibition in vivo at 0.31 mg/kg in test [2] (po, 1 hour before U-46619) of 57%. For the same molecule, in test [3] (setting [5]), the inhibition at 1 µM was 100% and the inhibition at 0.1 µM is 95%. For the same molecule, the IC50 in test [4] was 32 nM.
For the molecule `Cc1c(C)c(Cl)c(C)c(C(CCCCCC(=O)O)c2ccc(F)cc2)c1O` (stereo not drawn) [Compound 17], the inhibition in vivo at 1.25 mg/kg in test [2] (setting [6]) was 71%. In test [3] (setting [7]), the inhibition at 1 µM worked out at 98% and the inhibition at 0.1 µM turned out to be 12%. In addition, the IC50 in test [4] is 840 nM.
For the molecule `Cc1c(C)c2c(c(C(CCCCCC(=O)O)c3ccc(F)cc3)c1O)CCC2=O` (stereo not drawn) [Compound 37, 7-(6,7-dimethyl-5-hydroxy-1-oxoindan-4-yl)-7-(4-fluorophenyl)heptanoic acid], in test [2] (po, 1.25 mg/kg p.o., 1 hour before U-46619), testing at 1.25 mg/kg gave an inhibition in vivo of 59%. This molecule came in with an inhibition at 0.1 µM in test [3] (setting [5]) of 100%. Besides, in test [4], the IC50 was 13 nM.
Take `Cc1cc(O)c(O)c(C(CCCCCC(=O)O)c2ccc(F)cc2)c1C` (stereo not drawn) [Compound 57, 7-(4-fluorophenyl)-7-(2,3-dihydroxy-5,6-dimethylphenyl)heptanoic acid]: on 5-Lipoxygenase (10^-5 M), the inhibition at 10 µM worked out at 100%. The inhibition at 1 µM on 5-Lipoxygenase (10^-6 M) is 90%. For the same molecule, the inhibition at 0.1 µM on 5-Lipoxygenase (10^-7 M) is 27%.
For the molecule `Cc1c(C)c(Cc2ccccc2)c(C)c(C(CCCCCC(=O)O)c2ccc(F)cc2)c1O` (stereo not drawn) [Compound 19], the IC50 in test [4] amounted to 160 nM.
Take `C=CCON=Cc1c(C)c(C)c(O)c(C(CCCCCC(=O)O)c2ccc(F)cc2)c1C` (stereo not drawn) [Compound 52]: the inhibition in vivo at 0.31 mg/kg in test [2] (po, 1 hour before U-46619) was determined as 36%. Also, the inhibition at 0.1 µM in test [3] (setting [5]) amounted to 96%. Moreover, the IC50 in test [4] amounted to 14 nM.
